Laboratory results as given in US11542295B2, “Use of 20-hydroxyecdysone and the derivatives thereof in the treatment of myopathies” (BIOPHYTIS, priority 2017, dated 2023).

Legend:
Type in all cases: in vivo, mouse
[1] = test system: collagen I; assay: Collagen I protein expression in gastrocnemius muscle (Western Blot); conditions: 50 mg/kg*day, two months, p<0.01
Protocol: Twelve-week-old C57BL10 gene pool (wild mice referred to as “C57” in the figures) and C57BL10 mdx (mouse model of Duchenne muscular dystrophy, referred to as “mdx” in the figures) male mice, produced at Charles Rivers, were used. Two groups of mdx were chronically exposed per os either to BIO101 (number of mice n=9) or to BIO103 (number of mice n=9) at a dose of 50 mg/kg*day. A group of C57 mice (number of mice n=5) and a group of mdx mice (number of mice n=15) received the vehicle, i.e. no treatment. The animals of all of the groups were tested for their functional capacity (exertion tolerance test) after two months of treatment. The exertion tolerance test consists of measuring the maximum distance travelled (in-toto activity; FIGS. 1A and 1B). Furthermore, measurements of the maximum absolute isometric strength of the tibialis anterior muscle (in-situ activity; FIGS. 2A and 2B) were made after two months of treatment.
Alongside the observations made on the tibialis anterior muscle, an assessment of a marker of muscle fibrosis is carried out on the gastrocnemius muscle. The muscle is dissociated with moderate stirring for 16 h at 4° C. in RIPA lysis buffer. […] Collagen I is detected by Western Blot, detected by chemiluminescence then quantified by densitometry after normalisation with reference to GAPDH detection. […]

[2] = test system: Col1a1 (collagen 1); assay: Heart mRNA expression of fibrosis marker Col1a1 (semi-quantitative PCR); conditions: mdx mice, 50 mg/kg*day, two months
Protocol: (§1) Twelve-week-old C57BL10 gene pool (wild mice referred to as “C57” in the figures) and C57BL10 mdx (mouse model of Duchenne muscular dystrophy, referred to as “mdx” in the figures) male mice, produced at Charles Rivers, were used. Two groups of mdx were chronically exposed per os either to BIO101 (number of mice n=9) or to BIO103 (number of mice n=9) at a dose of 50 mg/kg*day. A group of C57 mice (number of mice n=5) and a group of mdx mice (number of mice n=15) received the vehicle, i.e. no treatment. The animals of all of the groups were tested for their functional capacity (exertion tolerance test) after two months of treatment. […]
(§2) An assessment of markers of fibrosis and cardiac hypertrophy is carried out at the end of the protocol, i.e. after two months of treatment. […] The extract RNA is quantified by spectrophotometry then the quality thereof is verified and validated with the Experion RNA StdSens Analysis Kit (Bio-Rad). […] Finally, semi-quantitative PCR analysis was carried out using SYBR® Green (Roche), a DNA intercalating agent and a LightCycler® 480 Real Time PCR (Roche) apparatus on 384-well plates. The molecular markers measured are as follows: • CTGF and collagen I: connective tissue growth factor (CTGF) is associated with healing and with many pathological fibrotic processes including DMD (Brigstock 2010; Song Y. 2017). […]

[3] = test system: CTGF (connective tissue growth factor); assay: Heart mRNA expression of fibrosis marker CTGF (semi-quantitative PCR); conditions: mdx mice, 50 mg/kg*day, two months; p=0,0506
Protocol: as §1, §2

[4] = test system: BMP4 (bone morphogenetic protein 4); assay: Heart mRNA expression of BMP4 (semi-quantitative PCR); conditions: mdx mice, 50 mg/kg*day, two months; p=0.0529
Protocol: as §1, §2

Compound | protein expression of collagen I in gastrocnemius muscle compared to untreated mdx mice [1] | genic expression of Col1a1 in heart compared to control mdx animals [2] | genic expression of CTGF in heart compared to control mdx animals [3] | genic expression of BMP4 in heart compared to control mdx animals [4]
CCSCC(=O)[C@H]1CC[C@@]2(O)C3=CC(=O)[C@@H]4C[C@@H](O)[C@@H](O)C[C@]4(C)C3CC[C@]12C (stereo partly drawn) [BIO103, (2S,3R,5R,10R,13R,14S,17S)-17-(2-ethylsulfanylacetyl)-2,3,14-trihydroxy-10,13-dimethyl-2,3,4,5,9,11,12,15,16,17-decahydro-1H-cyclopenta[a]phenanthren-6-one] | significant decrease | tends to prevent |  | 
CC(C)(O)CC[C@@H](O)[C@](C)(O)[C@H]1CC[C@@]2(O)C3=CC(=O)[C@@H]4C[C@@H](O)[C@@H](O)C[C@]4(C)[C@H]3CC[C@]12C [BIO101, 20-hydroxyecdysone] |  |  | prevents | reduces
